From US20120108557A1, “FLUOROQUINOLONE DERIVATIVES FOR OPHTHALMIC APPLICATIONS” (ALCON RESEARCH, LTD., priority 2008, published 2012)

Legend:
Assay type in all cases: cell-based
microorganisms = assay: In vitro antimicrobial activity test, whole panel of test organisms; details: across the test organisms of TABLE 3
Protocol: (§1) The activity of the compounds of the present invention was evaluated using an in vitro assay. Microorganisms were prepared from growth on agar media, in broth culture, or from thawed cryopreserved cultures. Fungal cultures were filtered to remove mycelial elements.
(§2) Using Mueller Hinton II Broth, 0.9% saline or other appropriate media, a suspension of each culture was prepared and adjusted to a turbidity equivalent to that of a 0.5 McFarland Standard. (Cultures adjusted to the 0.5 McFarland Standard generally contain approximately 1.0×10^8 CFU/mL). The adjusted suspension for each culture was diluted 1:10 in the appropriate media so that the inoculum concentration approximates 1.0×10^7 CFU/mL.
(§3) The antimicrobial agent to be tested was weighed and diluted with a volume of sterile distilled water calculated to yield the necessary starting concentration. Serial 1:2 dilutions of the antimicrobial agent in sterile distilled water were prepared (approximately 10-12 test concentrations comprise a reasonable experimental range). A known amount of each antimicrobial dilution was combined with an aliquot of agar medium calculated to yield the desired final antimicrobial test concentration and dispensed onto plates.
(§4) The amount of antimicrobial agent to be weighed was determined using the following equation: […]
(§5) Antimicrobial stock solutions were prepared at concentrations 5-10 times the highest concentration to be tested (routinely 1024 μg/mL). […] The stock solution was diluted to appropriate concentration using sterile water to form a working solution. The working solution was diluted two-fold, in sterile water, until the desired concentration is obtained.
Mueller Hinton II agar was prepared as described by the manufacturer. Mueller Hinton II agar may be supplemented with 5% defibrinated sheep blood for testing streptococci. Agar was added to the serially diluted antimicrobial solution in each container. The solutions were mixed thoroughly and poured into petri dishes (about 25 mL/plate). The pH of the agar at 25° C. should be between 7.2 and 7.4. […]

Acinetobacter baumannii = assay: In vitro antimicrobial activity, agar dilution MIC; details: test organism 26, Acinetobacter baumannii
Protocol: as §1, §2, §3, §4, §5
(§6) Mueller Hinton II agar was prepared as described by the manufacturer. Mueller Hinton II agar may be supplemented with 5% defibrinated sheep blood for testing streptococci. Agar was added to the serially diluted antimicrobial solution in each container. The solutions were mixed thoroughly and poured into petri dishes (about 25 mL/plate). The pH of the agar at 25° C. should be between 7.2 and 7.4.
(§7) At least one inocula control plate was inoculated (agar medium without antimicrobial agent) from each seed plate before inoculating test plates. Test plates were inoculated starting at the lowest concentration and proceeding to the highest concentration. After all test plates were inoculated, an additional control plate (agar medium without antimicrobial agent) was inoculated. The plates were incubated in a non-CO2 incubator (or CO2 incubator depending on growth requirements); 18-24 hours at 32-35° C. was sufficient for most organisms.
(§8) All inoculation points on the agar surface were examined for the presence of growth as compared to the inoculum control plates. The results were summarized and use to determine Minimal Inhibitory Concentrations (MICs): The MIC is the lowest concentration of the antimicrobial agent which prevents visible growth of the organism (negative score).

Streptococcus mitis = assay: In vitro antimicrobial activity, agar dilution MIC
Protocol: as §1, §2, §3, §4, §5, §6, §7, §8

Serratia marcescens = assay: In vitro antimicrobial activity, agar dilution MIC
Protocol: as §1, §2, §3, §4, §5, §6, §7, §8

Streptococcus pneumoniae = assay: In vitro antimicrobial activity, agar dilution MIC
Protocol: as §1, §2, §3, §4, §5, §6, §7, §8

Staphylococcus aureus = assay: In vitro antimicrobial activity, agar dilution MIC
Protocol: as §1, §2, §3, §4, §5, §6, §7, §8

MRSA = assay: In vitro antimicrobial activity, agar dilution MIC
Protocol: as §1, §2, §3, §4, §5, §6, §7, §8

MSSA = assay: In vitro antimicrobial activity, agar dilution MIC; details: test organism 6, MSSA
Protocol: as §1, §2, §3, §4, §5, §6, §7, §8

Morganella morganii = assay: In vitro antimicrobial activity, agar dilution MIC
Protocol: as §1, §2, §3, §4, §5, §6, §7, §8

Enterobacter hormaechei = assay: In vitro antimicrobial activity, agar dilution MIC; details: test organism 31, Enterobacter hormaechei
Protocol: as §1, §2, §3, §4, §5, §6, §7, §8

[1] = system: Corynebacterium amycolatum; assay: In vitro antimicrobial activity, agar dilution MIC
Protocol: as §1, §2, §3, §4, §5, §6, §7, §8

[2] = system: Staphylococcus haemolyticus; assay: In vitro antimicrobial activity, agar dilution MIC
Protocol: as §1, §2, §3, §4, §5, §6, §7, §8

MRSE = assay: In vitro antimicrobial activity, agar dilution MIC
Protocol: as §1, §2, §3, §4, §5, §6, §7, §8

Pseudomonas aeruginosa = assay: In vitro antimicrobial activity, agar dilution MIC
Protocol: as §1, §2, §3, §4, §5, §6, §7, §8

Acinetobacter junii = assay: In vitro antimicrobial activity, agar dilution MIC
Protocol: as §1, §2, §3, §4, §5, §6, §7, §8

Enterococcus faecalis = assay: In vitro antimicrobial activity, agar dilution MIC
Protocol: as §1, §2, §3, §4, §5, §6, §7, §8

Escherichia coli = assay: In vitro antimicrobial activity, agar dilution MIC
Protocol: as §1, §2, §3, §4, §5, §6, §7, §8

[3] = system: Staphylococcus epidermidis; assay: In vitro antimicrobial activity, agar dilution MIC
Protocol: as §1, §2, §3, §4, §5, §6, §7, §8

[4] = system: Stenotrophomonas maltophilia; assay: In vitro antimicrobial activity, agar dilution MIC
Protocol: as §1, §2, §3, §4, §5, §6, §7, §8

Nc1c(F)c(N2CC3CCCNC3C2)c(F)c2c1c(=O)c(C(=O)O)cn2C1CC1 (stereo not drawn) [Compound 3]
antimicrobial activity compared to moxifloxacin (in words) (microorganisms): showed increased antimicrobial activity against most microorganisms

moxifloxacin [reference compound]
Minimal Inhibitory Concentration (MIC) (Acinetobacter baumannii): ≦0.25
Minimal Inhibitory Concentration (MIC) (Streptococcus mitis; test organism 21, Streptococcus mitis): ≦0.25
Minimal Inhibitory Concentration (MIC) (Streptococcus mitis; test organism 22, Streptococcus mitis): 0.125
Minimal Inhibitory Concentration (MIC) (Streptococcus mitis; test organism 23, Streptococcus mitis): 4
Minimal Inhibitory Concentration (MIC) (Serratia marcescens; test organism 39, Serratia marcescens): 2
Minimal Inhibitory Concentration (MIC) (Serratia marcescens; test organism 40, Serratia marcescens): 2
Minimal Inhibitory Concentration (MIC) (Streptococcus pneumoniae; test organism 19, Streptococcus pneumoniae): 0.25
Minimal Inhibitory Concentration (MIC) (Streptococcus pneumoniae; test organism 20, Streptococcus pneumoniae): ≦0.25
Minimal Inhibitory Concentration (MIC) (Staphylococcus aureus; test organism 1, Staphylococcus aureus): 0.06
Minimal Inhibitory Concentration (MIC) (Staphylococcus aureus; test organism 2, Staphylococcus aureus): ≦0.25
Minimal Inhibitory Concentration (MIC) (MRSA; test organism 3, MRSA): 2
Minimal Inhibitory Concentration (MIC) (MRSA; test organism 4, MRSA): 4
Minimal Inhibitory Concentration (MIC) (MRSA; test organism 5, MRSA): >2
Minimal Inhibitory Concentration (MIC) (MSSA): >4
Minimal Inhibitory Concentration (MIC) (Morganella morganii; test organism 35, Morganella morganii): 0.5
Minimal Inhibitory Concentration (MIC) (Morganella morganii; test organism 36, Morganella morganii): 4
Minimal Inhibitory Concentration (MIC) (Enterobacter hormaechei): >4
Minimal Inhibitory Concentration (MIC) ([1]; test organism 24, Corynebacterium amycolatum): 0.03
Minimal Inhibitory Concentration (MIC) ([1]; test organism 25, Corynebacterium amycolatum): >4
Minimal Inhibitory Concentration (MIC) ([2]; test organism 12, Staphylococcus haemolyticus): 0.5
Minimal Inhibitory Concentration (MIC) ([2]; test organism 13, Staphylococcus haemolyticus): 2
Minimal Inhibitory Concentration (MIC) ([2]; test organism 14, Staphylococcus haemolyticus): >4
Minimal Inhibitory Concentration (MIC) (MRSE; test organism 9, MRSE): >2
Minimal Inhibitory Concentration (MIC) (MRSE; test organism 10, MRSE): >2
Minimal Inhibitory Concentration (MIC) (MRSE; test organism 11, MRSE): >4
Minimal Inhibitory Concentration (MIC) (Pseudomonas aeruginosa; test organism 37, Pseudomonas aeruginosa): >4
Minimal Inhibitory Concentration (MIC) (Pseudomonas aeruginosa; test organism 38, Pseudomonas aeruginosa): 4
Minimal Inhibitory Concentration (MIC) (Acinetobacter junii; test organism 27, Acinetobacter junii): ≦0.25
Minimal Inhibitory Concentration (MIC) (Acinetobacter junii; test organism 28, Acinetobacter junii): 0.25
Minimal Inhibitory Concentration (MIC) (Acinetobacter junii; test organism 29, Acinetobacter junii): >4
Minimal Inhibitory Concentration (MIC) (Enterococcus faecalis; test organism 15, Enterococcus faecalis): 0.5
Minimal Inhibitory Concentration (MIC) (Enterococcus faecalis; test organism 16, Enterococcus faecalis): ≦0.25
Minimal Inhibitory Concentration (MIC) (Enterococcus faecalis; test organism 17, Enterococcus faecalis): >4
Minimal Inhibitory Concentration (MIC) (Enterococcus faecalis; test organism 18, Enterococcus faecalis): >2
Minimal Inhibitory Concentration (MIC) (Escherichia coli; test organism 32, Escherichia coli): 0.125
Minimal Inhibitory Concentration (MIC) (Escherichia coli; test organism 33, Escherichia coli): ≦0.25
Minimal Inhibitory Concentration (MIC) (Escherichia coli; test organism 34, Escherichia coli): >4
Minimal Inhibitory Concentration (MIC) ([3]; test organism 7, Staphylococcus epidermidis): 0.06
Minimal Inhibitory Concentration (MIC) ([3]; test organism 8, Staphylococcus epidermidis): 1
Minimal Inhibitory Concentration (MIC) ([4]; test organism 41, Stenotrophomonas maltophilia): >4
Minimal Inhibitory Concentration (MIC) ([4]; test organism 42, Stenotrophomonas maltophilia): 0.125
